Each structure is given as a SMILES string. Counter-ions that a name gives are not always drawn.

This experiment relates to HCT116. The note with it: 72 h. In a few lines: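 HCT116 cells were seeded at 250 per well in 1536-well plates with 5 h allowed for attachment. CellTiter-Glo luminescence was normalized against vehicle (0%) and positive control (-100%) before pattern correction. The IC50 and maximal efficacy figures derive from four-parameter Hill fits.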

Consider `O=C(O)/C=C/c1ccc(Cn2ccnc2)cc1` [Ozagrel hydrochloride], for which the IC50 cell viability reads like this: (ICRF193 0 nM) above 45.8 µM; (ICRF193 200 nM) above 45.8 µM.
Consider `Cc1cc(O)ccc1C(C)(C)C` [P-T-BUTYL-M-CRESOL], for which the IC50 cell viability is, setting by setting: (ICRF193 0 nM) above 45.8 µM; (ICRF193 200 nM) above 45.8 µM.
As for `CCC1(C)OC(=O)N(C)C1=O` (stereo not drawn) [PARAMETHADIONE], the IC50 cell viability was above 45.8 µM (ICRF193 0 nM) and above 45.8 µM (ICRF193 200 nM).
As to `NC[C@@H]1O[C@H](O[C@H]2[C@@H](O)[C@H](O[C@@H]3[C@@H](O)[C@H](N)C[C@H](N)[C@H]3O[C@H]3O[C@H](CO)[C@@H](O)[C@H](O)[C@H]3N)O[C@@H]2CO)[C@H](N)[C@@H](O)[C@@H]1O` [PAROMOMYCIN SULFATE], the IC50 cell viability runs as follows: (ICRF193 0 nM) above 45.8 µM; (ICRF193 200 nM) above 45.8 µM.
In turn, `CC1(C)S[C@@H]2[C@H](NC(=O)COc3ccccc3)C(=O)N2[C@H]1C(=O)O` [PENICILLIN V POTASSIUM] showed an IC50 cell viability (ICRF193 0 nM) above 45.8 µM and an IC50 cell viability (ICRF193 200 nM) above 45.8 µM.
Turning to `N#Cc1ccc2c(c1)N(CCCN1CCC(O)CC1)c1ccccc1S2` [PERICIAZINE], the IC50 cell viability (ICRF193 0 nM) was above 45.8 µM and the IC50 cell viability (ICRF193 200 nM) is above 45.8 µM.
With `CC1(C)C(C=C(Cl)Cl)C1C(=O)OCc1cccc(Oc2ccccc2)c1` (stereo not drawn) [PERMETHRIN], the IC50 cell viability is, setting by setting: (ICRF193 0 nM) above 45.8 µM; (ICRF193 200 nM) above 45.8 µM.
`CN1CCC2=C(C1)C(c1ccccc1)c1ccccc12` (stereo not drawn) [PHENINDAMINE]: the IC50 cell viability by setting is: (ICRF193 0 nM) above 45.8 µM; (ICRF193 200 nM) above 45.8 µM.
On to `CC(C)(O)[C@@H]1[C@H]2OC(=O)[C@@H]1[C@]1(O)C[C@H]3O[C@]34C(=O)O[C@H]2[C@]14C` [PICROTIN], for which the IC50 cell viability runs as follows: (ICRF193 0 nM) above 45.8 µM; (ICRF193 200 nM) above 45.8 µM.
For the compound `CC(N/C(=N\C#N)Nc1ccncc1)C(C)(C)C` (stereo not drawn) [PINACIDIL], the IC50 cell viability is above 45.8 µM (ICRF193 0 nM) and above 45.8 µM (ICRF193 200 nM).
On to `C[C@]12C=CC(=O)C=C1CC[C@@H]1[C@@H]2[C@@H](O)C[C@@]2(C)[C@H]1CC[C@]2(O)C(=O)COC(=O)CCC(=O)O` [PREDNISOLONE HEMISUCCINATE], for which the IC50 cell viability was above 45.8 µM (ICRF193 0 nM) and above 45.8 µM (ICRF193 200 nM).
As for `CCCCC(=O)O[C@]1(C(=O)COC(C)=O)CC[C@H]2[C@@H]3CCC4=CC(=O)C=C[C@]4(C)[C@H]3[C@@H](O)C[C@@]21C` [PREDNISOLONE VALERATE ACETATE], the IC50 cell viability was above 45.8 µM (ICRF193 0 nM) and above 45.8 µM (ICRF193 200 nM).
As to `CCCOc1cc(N)ccc1C(=O)OCCN(CC)CC` [PROPOXYCAINE HYDROCHLORIDE], the IC50 cell viability is, setting by setting: (ICRF193 0 nM) above 45.8 µM; (ICRF193 200 nM) above 45.8 µM.
For the compound `CC(C)OC(=O)[C@H](C)N[P@@](=O)(OC[C@H]1O[C@@H](n2ccc(=O)[nH]c2=O)[C@](C)(F)[C@@H]1O)Oc1ccccc1` [PSI-7976], the IC50 cell viability was above 45.8 µM (ICRF193 0 nM) and above 45.8 µM (ICRF193 200 nM).
Regarding `C=C/C=C\CC1=C(C)[C@@H](OC(=O)[C@@H]2[C@@H](/C=C(\C)C(=O)OC)C2(C)C)CC1=O` [PYRETHRIN II], the IC50 cell viability (ICRF193 0 nM) was above 45.8 µM and the IC50 cell viability (ICRF193 200 nM) is above 45.8 µM.
Regarding `CCCCCCCCCCCCCCCC(=O)OC1CCCn2c1nc(C)c(CCN1CCC(c3noc4cc(F)ccc34)CC1)c2=O` (stereo not drawn) [Paliperidone Palmitate], the IC50 cell viability reads like this: (ICRF193 0 nM) above 45.8 µM; (ICRF193 200 nM) above 45.8 µM.
As to `Cc1nc2n(c(=O)c1CCN1CCC(c3noc4cc(F)ccc34)CC1)CCCC2O` (stereo not drawn) [Paliperidone], the IC50 cell viability reads like this: (ICRF193 0 nM) above 45.8 µM; (ICRF193 200 nM) above 45.8 µM.
Take `O=C1c2cccc3c2[C@H](CCC3)CN1[C@@H]1CN2CCC1CC2` [Palonosetron hydrochloride]: the IC50 cell viability by setting is: (ICRF193 0 nM) above 45.8 µM; (ICRF193 200 nM) above 45.8 µM.
For `NCCC(O)(P(=O)(O)O)P(=O)(O)O` [Pamidronic acid], the IC50 cell viability by setting is: (ICRF193 0 nM) above 45.8 µM; (ICRF193 200 nM) above 45.8 µM.
For `O=C(O)c1cc2ccccc2c(Cc2c([O-])c(C(=O)O)cc3ccccc23)c1[O-].[Na+].[Na+]` [Pamoic acid disodium salt], the IC50 cell viability is above 45.8 µM (ICRF193 0 nM) and above 45.8 µM (ICRF193 200 nM).
Compound `CC(=O)O[C@H]1C[C@@H]2CC[C@@H]3[C@H](CC[C@@]4(C)[C@H]3C[C@H]([N+]3(C)CCCCC3)[C@@H]4OC(C)=O)[C@@]2(C)C[C@@H]1[N+]1(C)CCCCC1` [Pancuronium bromide] came in with an IC50 cell viability (ICRF193 0 nM) above 45.8 µM and an IC50 cell viability (ICRF193 200 nM) above 45.8 µM.
For the compound `COc1ccnc(C[S+]([O-])c2nc3cc(OC(F)F)ccc3[nH]2)c1OC` (stereo not drawn) [Pantoprazole], the IC50 cell viability is above 45.8 µM (ICRF193 0 nM) and above 45.8 µM (ICRF193 200 nM).
For `CC(C)(CO)[C@@H](O)C(=O)NCCC(=O)O` [Pantothenic acid], the IC50 cell viability was above 45.8 µM (ICRF193 0 nM) and above 45.8 µM (ICRF193 200 nM).
Consider `CC(=O)OCC(=O)[C@@]1(O)[C@H](C)C[C@H]2[C@@H]3C[C@H](F)C4=CC(=O)C=C[C@]4(C)[C@H]3[C@@H](O)C[C@@]21C` [Paramethasone acetate], for which the IC50 cell viability (ICRF193 0 nM) is above 45.8 µM and the IC50 cell viability (ICRF193 200 nM) is above 45.8 µM.

Values taken from the supplement of paper PMC12137928.
